Values quoted from earlier work as cited in US20220346434A1, “ORAL COMPOSITIONS AND METHODS OF MANUFACTURE” (NICOVENTURES TRADING LIMITED, priority 2021, published 2022).

How the values were obtained:
[1] = for solubility in water / aqueous environment: water or aqueous environment (e.g., saliva)
[2] = converts via isomerization into trans-bixin (β-bixin)

| Structure (SMILES) | solubility in water / aqueous environment [1] | solubility in fats and alcohols ([1]; fats and alcohols) | chemical stability when isolated [2] |
| --- | --- | --- | --- |
| CC(/C=C/C=C(C)/C=C/C(=O)O)=C\C=C\C=C(C)\C=C\C=C(C)\C=C\C(=O)O (stereo in doubt) [norbixin, (2E,4E,6E,8E,10E,12E,14E,16E,18E)-4,8,13,17-tetramethylicosa-2,4,6,8,10,12,14,16,18-nonaenedioic acid] | water soluble |  |  |
| COC(=O)/C=C/C(C)=C\C=C\C(C)=C\C=C\C=C(C)\C=C\C=C(C)\C=C\C(=O)O [bixin] | insoluble in water | soluble in fats and alcohols | chemically unstable when isolated |
| C=C(C)[C@@H]1CCC(C)=C[C@H]1c1c(O)cc(CCCCC)cc1O [CBD, cannabidiol, reference compound] | insoluble in an aqueous environment |  |  |
